Results as given in publication PMC6151429 (Molecules : A Journal of Synthetic Chemistry and Natural …, 2017).
“And” between values parts separate entries of the source, which are not always exact repeats. Equal values may be shown once. Read-outs that look alike come from different tables or passages of the source.

Tests used:
[1] = biological target: T1, Electric eel acetylcholinesterase (AChE) (Electrophorus electricus, UniProt O42275); assay: biochemical; conditions: for IC50: electric eel AChE, mean ± SEM of triplicate experiments; for SI, selective index (BChE/AChE): calculated from IC50 of BChE/AChE
T1 construct: purchased Sigma-Aldrich Co. (St. Louis, MO, USA)
T1 sequence (O42275 24-633): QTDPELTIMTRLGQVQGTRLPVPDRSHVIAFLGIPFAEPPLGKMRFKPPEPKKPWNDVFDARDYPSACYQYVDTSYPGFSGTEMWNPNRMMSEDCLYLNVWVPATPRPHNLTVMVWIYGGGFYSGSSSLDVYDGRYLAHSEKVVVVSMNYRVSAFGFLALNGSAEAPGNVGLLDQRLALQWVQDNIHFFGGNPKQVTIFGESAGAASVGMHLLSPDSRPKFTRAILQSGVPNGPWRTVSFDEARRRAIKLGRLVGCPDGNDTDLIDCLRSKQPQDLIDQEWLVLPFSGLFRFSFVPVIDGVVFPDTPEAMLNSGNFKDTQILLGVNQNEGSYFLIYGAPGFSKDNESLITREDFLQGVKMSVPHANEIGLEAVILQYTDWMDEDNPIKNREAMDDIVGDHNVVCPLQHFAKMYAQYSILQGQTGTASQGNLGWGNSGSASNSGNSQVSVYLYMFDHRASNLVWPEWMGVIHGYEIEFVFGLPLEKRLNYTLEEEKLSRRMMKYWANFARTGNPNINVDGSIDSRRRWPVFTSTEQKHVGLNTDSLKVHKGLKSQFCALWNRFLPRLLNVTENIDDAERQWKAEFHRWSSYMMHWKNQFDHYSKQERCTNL
Description: (§1) Electric eel acetylcholinesterase (AChE, EC3.1.1.7), horse serum butyrylcholinesterase (BChE, EC 3.1.1.8), acetylthiocholine iodide (ACh), butyrylthioline chloride (BCh), 5,5′-dithobis [2-nitrobenzoic acid] […] The BACE1 FREF assay kit (β-secretase) was purchased from Pan Vera Co. (Madison, WI, USA). ONOO^− was purchased from Molecular Probes Cayman (Ann Arbor, MI, USA). All other chemicals and solvents used were purchased from E. Merck, Fluka, or Sigma- Aldrich, unless otherwise stated.
The inhibitory activity of the isolated coumarins toward ChE was measured using the spectrophotometric method developed by Ellman et al.. ACh and BCh were used as substrates to assay the inhibition of AChE and BChE, respectively. Each reaction mixture consisted of 140 µL sodium phosphate buffer (pH 8.0), 20 µL of test sample solution, and 20 µL of either AChE or BChE solution, which were then combined and incubated for 15 min at room temperature. […] Reactions were initiated upon addition of 10 µL of DTNB and 10 µL of either ACh or BCh. Enzymatic hydrolysis, mediated by AChE or BChE, was monitored according to the formation of yellow 5-thio-2-nitrobenzoate anions at 412 nm for 15 min, which were generated by the reaction of DTNB with thiocholine released from ACh or BCh. All reactions were performed in 96-well plates in triplicate, and recorded using a microplate spectrophotometer (Molecular Devices, Sunnyvale, CA, USA).

human recombinant BACE1 [2] = biological target: T2, human recombinant BACE1 (Homo sapiens, UniProt P56817); assay: In vitro BACE1 FRET enzyme assay; type: biochemical
T2 construct: purchased PanVera Co. (Madison, WI, USA)
T2 sequence (P56817 46-501): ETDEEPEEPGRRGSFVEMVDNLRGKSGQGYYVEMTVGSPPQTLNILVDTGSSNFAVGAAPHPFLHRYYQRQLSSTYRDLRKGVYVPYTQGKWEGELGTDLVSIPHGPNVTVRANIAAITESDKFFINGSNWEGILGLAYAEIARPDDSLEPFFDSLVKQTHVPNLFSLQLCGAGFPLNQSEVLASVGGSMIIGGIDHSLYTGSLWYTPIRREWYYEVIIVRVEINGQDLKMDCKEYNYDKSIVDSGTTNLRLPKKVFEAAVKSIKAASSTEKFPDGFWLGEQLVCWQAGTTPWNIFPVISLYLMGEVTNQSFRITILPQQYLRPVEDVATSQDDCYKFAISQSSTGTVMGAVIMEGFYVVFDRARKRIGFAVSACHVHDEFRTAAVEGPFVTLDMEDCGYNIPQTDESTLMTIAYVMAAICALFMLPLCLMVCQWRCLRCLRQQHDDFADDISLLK
Protocol: A BACE1 fluorescence resonance energy transfer (FRET) assay kit (β-secretase, human recombinant) was purchased from PanVera Co. (Madison, WI, USA). The assay was carried out according to the provided manual with slight modifications, as described in a previous study.

[3] = system: ONOO−-mediated tyrosine nitration of BSA; assay: Inhibition of ONOO−-mediated protein tyrosine nitration (Western blot, 3-nitrotyrosine antibody); type: biochemical; conditions: pretreatment at 12.5–100 μM
Protocol: To determine the inhibitory effect of 2 against ONOO^−-induced tyrosine nitration, Western blot analysis was performed using a 3-nitrotyrosine antibody.
Figure 5 Effect of 2 on nitration of BSA by ONOO^−. A mixture of the compound and BSA was incubated at 25 °C for 10 min. After incubation of ONOO^− at 25 °C for 10 min, reactants were resolved by electrophoresis in a 10% SDS-polyacrylamide gel.
We evaluated ONOO^−-mediated protein tyrosine nitration using the method of Ali et al., with slight modifications. The tested concentration range of 2 was 12.5–100 µM.

[4] = biological target: T3, horse serum butyrylcholinesterase (BChE) (Equus caballus, UniProt P81908); assay: In vitro ChE enzyme assay (Ellman), BChE; type: biochemical; conditions: mean ± SEM of triplicate experiments
T3 construct: horse serum butyrylcholinesterase (BChE, EC 3.1.1.8); purchased Sigma-Aldrich Co. (St. Louis, MO, USA); host or cells: horse serum
T3 sequence (P81908 whole entry): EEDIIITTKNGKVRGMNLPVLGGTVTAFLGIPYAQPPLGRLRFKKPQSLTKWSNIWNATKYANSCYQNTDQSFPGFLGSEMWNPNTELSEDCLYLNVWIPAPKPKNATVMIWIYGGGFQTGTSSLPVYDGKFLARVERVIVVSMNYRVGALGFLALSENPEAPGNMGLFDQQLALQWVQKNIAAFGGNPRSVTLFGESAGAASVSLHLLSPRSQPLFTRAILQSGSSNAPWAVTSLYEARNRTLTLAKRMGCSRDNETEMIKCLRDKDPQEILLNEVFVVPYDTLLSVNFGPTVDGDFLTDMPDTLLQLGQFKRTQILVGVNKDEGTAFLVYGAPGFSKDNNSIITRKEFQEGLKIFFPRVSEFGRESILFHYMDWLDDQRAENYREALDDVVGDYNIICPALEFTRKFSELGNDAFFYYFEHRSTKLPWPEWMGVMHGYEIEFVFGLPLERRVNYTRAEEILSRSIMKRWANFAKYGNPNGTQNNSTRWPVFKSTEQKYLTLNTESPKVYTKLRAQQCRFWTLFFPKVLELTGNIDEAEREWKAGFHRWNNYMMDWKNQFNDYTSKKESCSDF
Description: as §1
The inhibitory activity of the isolated coumarins toward ChE was measured using the spectrophotometric method developed by Ellman et al.. ACh and BCh were used as substrates to assay the inhibition of AChE and BChE, respectively. Each reaction mixture consisted of 140 µL sodium phosphate buffer (pH 8.0), 20 µL of test sample solution, and 20 µL of either AChE or BChE solution, which were then combined and incubated for 15 min at room temperature. […] Enzymatic hydrolysis, mediated by AChE or BChE, was monitored according to the formation of yellow 5-thio-2-nitrobenzoate anions at 412 nm for 15 min, which were generated by the reaction of DTNB with thiocholine released from ACh or BCh. All reactions were performed in 96-well plates in triplicate, and recorded using a microplate spectrophotometer (Molecular Devices, Sunnyvale, CA, USA).

human recombinant BACE1 [5] = biological target: T2, human recombinant BACE1; assay: Kinetics of BACE1 inhibition (Lineweaver–Burk and Dixon plots); type: biochemical; conditions: for BACE1 inhibition type: determined using Dixon and Lineweaver–Burk plots; for Ki: determined using a Dixon plot, substrate 750, 375, 250 nM, read-out: BACE1 inhibition constant (Ki)
Protocol: Complementary kinetic methods were employed: Lineweaver–Burk and Dixon plots. The mechanism of BACE1 inhibition was evaluated by monitoring the effects of different concentrations of substrate (750, 375, and 250 nM). The test concentrations of 2 in BACE1 inhibition kinetic experiments were 0, 0.4, 2.0, and 10 µM, while those for 3 were 0, 25, 50, and 100 µM. Inhibition constants (Ki) were determined by interpreting the Dixon plot, where the value on the x-axis represents Ki.

[6] = human recombinant BACE1, mean ± SEM of triplicate experiments, read-out: IC50 BACE1

SMILES | IC50 ([1]; IC50 AChE) [µM] | IC50 (human recombinant BACE1 [2]) [µM] | Inhibition of ONOO−-mediated tyrosine nitration [3] | IC50 [4] | IC50 (human recombinant BACE1 [2]; [6]) [µM] | BACE1 inhibition type (human recombinant BACE1 [5]) | Ki (human recombinant BACE1 [5]) [µM] | SI, selective index (BChE/AChE) [1] | IC50 ([1]; read-out: IC50 AChE)
COc1ccc2cc3[n+](cc2c1OC)CCc1cc2c(cc1-3)OCO2 [Berberine, berberine, reference compound] | < 0.32 | – | – | – | – | – | – | – | –
O=c1ccc2ccc(O)cc2o1 [Compound 1, umbelliferone] | – | 169 ± 2.17 | – | – | – | – | – | – | –
O=Cc1cc2ccc(=O)oc2cc1O [Compound 2, 6-formyl umbelliferone] | – | – | significant dose-dependent inhibition | 27.9 to 87.7 µM and 27.9 µM | 1.31 ± 0.01 | noncompetitive-type inhibition | 2.27 | 1.67 | 16.7 to 19.1 µM and 16.7 µM
O=Cc1c(O)ccc2ccc(=O)oc12 [Compound 3, 8-formyl umbelliferone] | – | – | – | 27.9 to 87.7 µM and 87.7 µM | 39.82 ± 0.31 | noncompetitive-type inhibition | 22.2 | 4.58 | 16.7 to 19.1 µM and 19.1 µM
